Measured values published in ChEMBL document CHEMBL1201862, “PubChem BioAssay data set” (2004).
Active and inactive are the calls of the source.

Columns and labels:
[1] = P. falciparum Dd2 growth inhibitors, dose response, SYBR Green, cherry-picked samples (AID 1159567); type: functional, cell-based
[2] = toxicity to human hepatoma HepG2 cells – cell-based, cherry-picked samples, cytotoxicity control, dose response (AID 1159577); type: functional
Paired box protein Pax-8 = Paired box protein Pax-8 (Homo sapiens, UniProt Q06710); assay: PAX8 transcriptional activity inhibition in RMG-I – RMG-I cells, luciferase, cherry-pick, dose response (AID 687027); type: functional, cell-based;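 note: luciferase reporter driven by Pax8 target thyroperoxidase promoter measured by SteadyGlo luminescence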
[3] = reduced cellular PGC1a acetyl-lysine signal – cell-based, cherry-picked samples, dose response (AID 720514); type: functional;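 note: potency may reflect raised or lowered acetylation signal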
[4] = A549 cell cytotoxicity, dose response, cytotoxicity control, plate reader, cherry-pick, antagonist series (AID 743412); type: functional, cell-based
[5] = toxicity toward HepG2 liver cells – cell-based, plate reader, cherry-pick, antagonist series, cytotoxicity control, dose response (AID 743416); type: functional
[6] = blockers of bursicon-stimulated LGR2 cAMP reporter – cell-based, HEK293, CRE-luciferase reporter, cherry pick, set 2, dose response (AID 743343); type: functional;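 note: transfected cells were stimulated with diluted bursicon conditioned medium after compound addition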
[7] = general cell-killing toxicity readout – plate reader, dry powder samples, cytotoxicity control for PAX8 inhibitor project, dose response (AID 743021); type: functional, cell-based
[8] = blockade of melanocortin 4 receptor signaling – cell-based, plate reader, cherry pick, counter-screen for LGR2 antagonist project, dose response (AID 743444); type: functional;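 note: transfected HEK 293 cells stimulated with alpha-MSH peptide; potency of inhibitors of the alpha-MSH evoked signal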
[9] = viability loss in HEK293 cells – cell-based, plate reader, cherry-picked samples, cytotoxicity control, dose response (AID 743446); type: functional
fMet-Leu-Phe receptor = fMet-Leu-Phe receptor (Homo sapiens, UniProt P21462); assay: formyl peptide receptor binders – dose response (AID 519); type: functional
[10] = target: T1, Heat shock factor protein 1 (Mus musculus, UniProt P38532); assay: enhancement of HSF1-driven luciferase signal – cell-based, NIH3T3, luminescence, dose retest, confirmation (AID 435004); type: functional;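 note: stress induced by proteasome inhibitor MG132 added 30 min after compound; luciferase reporter driven by HSF1 response element in NIH3T3 cells; actives raise luminescence as potentiators of the MG132 stress response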
T1 sequence (P38532 whole entry): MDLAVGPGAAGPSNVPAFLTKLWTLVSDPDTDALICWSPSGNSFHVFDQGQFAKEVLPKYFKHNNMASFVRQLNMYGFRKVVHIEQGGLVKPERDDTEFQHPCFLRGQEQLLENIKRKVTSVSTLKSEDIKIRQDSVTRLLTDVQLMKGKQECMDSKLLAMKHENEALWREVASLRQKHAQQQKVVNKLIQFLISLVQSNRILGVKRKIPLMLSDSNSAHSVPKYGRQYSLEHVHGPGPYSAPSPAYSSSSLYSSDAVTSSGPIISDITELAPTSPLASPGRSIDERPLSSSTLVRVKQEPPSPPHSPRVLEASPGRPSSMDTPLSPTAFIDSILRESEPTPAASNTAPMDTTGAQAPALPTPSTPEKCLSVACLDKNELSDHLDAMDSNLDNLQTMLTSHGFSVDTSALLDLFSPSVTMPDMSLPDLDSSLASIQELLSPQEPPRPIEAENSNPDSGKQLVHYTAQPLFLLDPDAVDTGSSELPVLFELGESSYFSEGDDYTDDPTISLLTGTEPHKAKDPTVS

[11] = target: T2, Methionyl-tRNA synthetase, putative (Trypanosoma brucei brucei, UniProt Q38C91); type: functional, Trypanosoma brucei brucei strain 927/4 GUTat10.1
T2 sequence (Q38C91 whole entry): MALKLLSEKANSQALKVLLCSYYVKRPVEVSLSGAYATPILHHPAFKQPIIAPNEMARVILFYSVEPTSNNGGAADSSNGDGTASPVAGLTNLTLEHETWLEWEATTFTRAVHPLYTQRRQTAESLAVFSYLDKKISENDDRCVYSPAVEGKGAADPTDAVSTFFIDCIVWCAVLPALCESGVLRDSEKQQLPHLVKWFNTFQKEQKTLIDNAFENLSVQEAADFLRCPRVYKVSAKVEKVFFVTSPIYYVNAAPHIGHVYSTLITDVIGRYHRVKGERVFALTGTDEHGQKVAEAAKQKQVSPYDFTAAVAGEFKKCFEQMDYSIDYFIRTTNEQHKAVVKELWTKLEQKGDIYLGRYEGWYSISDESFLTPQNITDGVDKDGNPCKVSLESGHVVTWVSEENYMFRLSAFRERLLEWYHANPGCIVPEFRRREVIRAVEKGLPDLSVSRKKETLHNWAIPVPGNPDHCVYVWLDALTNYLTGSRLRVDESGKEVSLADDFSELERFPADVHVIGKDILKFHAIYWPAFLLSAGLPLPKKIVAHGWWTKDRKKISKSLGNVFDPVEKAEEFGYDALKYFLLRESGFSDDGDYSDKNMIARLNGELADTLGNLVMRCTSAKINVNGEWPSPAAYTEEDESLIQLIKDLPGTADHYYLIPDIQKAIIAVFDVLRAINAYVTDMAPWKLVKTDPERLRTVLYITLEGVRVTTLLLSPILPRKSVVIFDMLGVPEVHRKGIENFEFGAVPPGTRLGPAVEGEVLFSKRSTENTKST

[12] = Counterscreen for inhibitors of Trypanosoma brucei methionyl tRNA synthetase (MetRS): Luminescence-based cell-based high throughput dose response assay to identify compounds that are cytotoxic to Jurkat human T lymphocyte cells.; type: functional
[13] = target: T2, Methionyl-tRNA synthetase, putative; type: functional, Trypanosoma brucei brucei strain 927/4 GUTat10.1; remark: listed apart in the source
[14] = Late stage counterscreen for inhibitors of Trypanosoma brucei methionyl tRNA synthetase (MetRS): Luminescence-based cell-based high throughput dose response assay to identify compounds that are cytotoxic to Jurkat human T lymphocyte cells.; type: functional
Beta-lactamase [15] = target: Beta-lactamase (Salmonella choleraesuis (strain SC-B67), UniProt Q5J463); assay: Epi-absorbance-based counterscreen for selective VIM-2 inhibitors: dose response biochemical high throughput screening assay to identify inhibitors of TEM-1 serine-beta-lactamase.
Beta-lactamase [16] = target: T3, Beta-lactamase (Pseudomonas aeruginosa, UniProt Q79MP6); assay: inhibition of IMP-1 beta-lactamase activity – biochemical, epi-absorbance, selectivity assay for VIM-2 inhibitor project, dose response (AID 1920)
Beta-lactamase [17] = target: T3, Beta-lactamase; assay: […] counterscreen for selective VIM-2 inhibitors: dose response biochemical high throughput screening assay to identify inhibitors of IMP-1 metallo-beta-lactamase.
Kallikrein-7 = Kallikrein-7 (Homo sapiens, UniProt P49862); assay: Fluorescence Intensity-based biochemical primary high throughput dose response assay to identify activators of kallikrein-7 (K7) zymogen.
[18] = growth inhibition of yeast DHODH-expressing 3D7 parasites – SYBR Green, dry powder samples, dose response (AID 1159570); type: functional, cell-based;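 note: parasite growth measured after 72 hours of compound exposure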
[19] = toxicity to human HepG2 hepatoma cells – cell-based, plate reader, dry powder samples, cytotoxicity control, dose response (AID 1159569); type: functional;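 note: inhibitor potency with signal falling toward the positive control level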
[20] = Dd2 malaria parasite growth inhibition potency – SYBR Green, dry powder samples, dose response (AID 1159566); type: functional, cell-based;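 note: potency for growth inhibition with lower SYBR green DNA signal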
[21] = growth inhibition of PfATP4-mutant resistant parasites – NITD609-resistant line, SYBR Green, dry powder, dose response (AID 1159571); type: functional, cell-based;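 note: parasites synchronized at ring stage by sorbitol before testing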
[22] = rise of 2N DNA cells, HeLa – IC50, dose response (AID 1117349); type: functional, cell-based
[23] = CellTiter-Glo luminescence survival assay, SW480 colon tumor line, concentration-response curve, half-maximal inhibitory concentration (AID 1117338); type: functional
[24] = RKO cell viability reduction, dose response, CellTiter-Glo luminescence (AID 1117322); type: functional
[25] = cytotoxicity toward HCT116 cells – cell-based, CellTiter-Glo luminescence, IC50, dose response (AID 1117332); type: functional; settings: HCT-116
[26] = SNU-C1 cell viability reduction, dose response, CellTiter-Glo luminescence (AID 1117323); type: functional, cell-based
[27] = cytotoxicity toward Colo320 cells – cell-based, CellTiter-Glo luminescence, IC50, dose response (AID 1117334); type: functional; settings: COLO 320
[28] = rise of 4N DNA cells, HeLa – IC50, dose response (AID 1117351); type: functional, cell-based
[29] = cytotoxicity toward HT-29 cells – cell-based, CellTiter-Glo luminescence, IC50, dose response (AID 1117330); type: functional
[30] = Reduced DLD-1 viability, concentration-response, CellTiter-Glo luminescence (AID 1117352); type: functional
[31] = HCT116 cell viability decrease, GSK3B pretreatment – CellTiter-Glo, IC50, dose response (AID 1117339); type: functional; settings: HCT-116
[32] = target: T4, Carboxy-terminal domain RNA polymerase II polypeptide A small phosphatase 1 (Homo sapiens, UniProt Q9GZU7); assay: CTDSP1 inhibitors, concentration-response, biochemical, absorbance readout, ultra-high-throughput screen actives (AID 540297); type: functional
T4 sequence (Q9GZU7 whole entry): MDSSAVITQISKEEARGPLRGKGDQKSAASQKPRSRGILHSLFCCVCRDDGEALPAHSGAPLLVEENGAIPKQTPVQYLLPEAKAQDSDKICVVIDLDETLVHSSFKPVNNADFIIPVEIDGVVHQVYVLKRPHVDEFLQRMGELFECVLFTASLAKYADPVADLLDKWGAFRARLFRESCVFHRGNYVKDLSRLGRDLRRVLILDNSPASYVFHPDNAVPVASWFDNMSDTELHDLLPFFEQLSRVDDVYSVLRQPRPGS

[33] = target: Tyrosine-protein phosphatase non-receptor type 11 (Homo sapiens, UniProt Q06124); assay: PTPN11 enzyme inhibitors – biochemical, selectivity assay for STEP inhibitor project, dose response (AID 602367); type: functional; settings: read-out: IC50_Mean
[34] = target: Tyrosine-protein phosphatase non-receptor type 5 (Homo sapiens, UniProt P54829); assay: PTPN5 enzyme inhibition – biochemical, fluorescence intensity, uHTS hits, confirmation (AID 602372); type: functional; settings: read-out: IC50_Mean
[35] = target: Dual specificity protein phosphatase 3 (Homo sapiens, UniProt P51452); assay: VHR phosphatase inhibition, dose response, selectivity assay for STEP inhibitor project, biochemical (AID 602374); type: functional; settings: read-out: IC50_Mean
[36] = target: Disintegrin and metalloproteinase domain-containing protein 17 (Homo sapiens, UniProt P78536); assay: exosite inhibitors of ADAM17, dose response, biochemical (AID 743260)
[37] = inhibition of ADAM10 peptide cleavage – biochemical, FRET peptide substrate, recombinant human ADAM10, selectivity assay for ADAM17 exosite inhibitor project, dose response (AID 743259);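 note: ADAM10 enzyme cleaving a FRET peptide substrate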
[38] = viability inhibitors of stage V gametocytes – luminescence, dose response (AID 1117278); type: functional, cell-based;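 note: gametocytes exposed to compound for 24 hours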
[39] = viability loss in human Jurkat cells – cell-based, luminescence, cytotoxicity control for P. falciparum gametocyte viability project, dose response (AID 1117277); type: functional;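 note: potency reflects loss of cellular ATP meaning fewer viable cells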

Kallikrein-7, sequence (P49862 whole entry): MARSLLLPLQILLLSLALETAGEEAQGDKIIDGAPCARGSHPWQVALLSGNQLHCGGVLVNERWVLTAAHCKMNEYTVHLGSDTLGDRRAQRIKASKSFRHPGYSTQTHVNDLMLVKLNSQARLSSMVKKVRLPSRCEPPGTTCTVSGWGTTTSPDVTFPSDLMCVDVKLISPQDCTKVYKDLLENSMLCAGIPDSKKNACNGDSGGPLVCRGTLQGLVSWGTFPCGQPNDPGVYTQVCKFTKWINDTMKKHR
T3 sequence (Q79MP6 whole entry): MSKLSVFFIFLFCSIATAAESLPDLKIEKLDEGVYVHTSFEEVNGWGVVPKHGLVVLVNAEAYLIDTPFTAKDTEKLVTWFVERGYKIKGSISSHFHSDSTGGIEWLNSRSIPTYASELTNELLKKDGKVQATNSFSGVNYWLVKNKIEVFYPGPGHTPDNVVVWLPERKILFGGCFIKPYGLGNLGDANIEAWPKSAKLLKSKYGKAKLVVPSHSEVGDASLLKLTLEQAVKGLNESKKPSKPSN
fMet-Leu-Phe receptor, sequence (P21462 whole entry): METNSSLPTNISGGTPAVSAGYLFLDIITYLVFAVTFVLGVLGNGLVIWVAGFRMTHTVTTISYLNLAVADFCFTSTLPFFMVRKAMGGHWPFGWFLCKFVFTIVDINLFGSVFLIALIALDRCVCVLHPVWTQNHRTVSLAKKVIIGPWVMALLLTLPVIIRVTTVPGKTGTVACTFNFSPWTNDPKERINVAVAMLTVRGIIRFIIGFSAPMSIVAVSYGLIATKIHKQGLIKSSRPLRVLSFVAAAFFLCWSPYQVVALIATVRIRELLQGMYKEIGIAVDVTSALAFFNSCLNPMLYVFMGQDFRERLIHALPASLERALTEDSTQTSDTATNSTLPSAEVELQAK
Tyrosine-protein phosphatase non-receptor type 11, sequence (Q06124 whole entry): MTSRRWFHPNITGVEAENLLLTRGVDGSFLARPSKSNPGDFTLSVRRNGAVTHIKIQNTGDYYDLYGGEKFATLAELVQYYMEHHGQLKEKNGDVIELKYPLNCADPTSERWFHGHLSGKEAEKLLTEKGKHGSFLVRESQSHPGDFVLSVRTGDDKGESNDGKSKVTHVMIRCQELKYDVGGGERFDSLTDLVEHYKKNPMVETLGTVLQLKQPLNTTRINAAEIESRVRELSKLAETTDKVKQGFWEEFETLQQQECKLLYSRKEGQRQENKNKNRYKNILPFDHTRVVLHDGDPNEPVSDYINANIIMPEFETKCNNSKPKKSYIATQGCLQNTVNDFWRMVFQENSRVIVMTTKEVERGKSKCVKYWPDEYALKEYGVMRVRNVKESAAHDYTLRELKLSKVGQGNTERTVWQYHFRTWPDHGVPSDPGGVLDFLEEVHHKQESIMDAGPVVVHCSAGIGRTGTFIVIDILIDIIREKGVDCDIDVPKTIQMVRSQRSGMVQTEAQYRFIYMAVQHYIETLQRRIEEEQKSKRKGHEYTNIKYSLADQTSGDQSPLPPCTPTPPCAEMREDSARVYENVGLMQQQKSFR
Tyrosine-protein phosphatase non-receptor type 5, sequence (P54829 whole entry): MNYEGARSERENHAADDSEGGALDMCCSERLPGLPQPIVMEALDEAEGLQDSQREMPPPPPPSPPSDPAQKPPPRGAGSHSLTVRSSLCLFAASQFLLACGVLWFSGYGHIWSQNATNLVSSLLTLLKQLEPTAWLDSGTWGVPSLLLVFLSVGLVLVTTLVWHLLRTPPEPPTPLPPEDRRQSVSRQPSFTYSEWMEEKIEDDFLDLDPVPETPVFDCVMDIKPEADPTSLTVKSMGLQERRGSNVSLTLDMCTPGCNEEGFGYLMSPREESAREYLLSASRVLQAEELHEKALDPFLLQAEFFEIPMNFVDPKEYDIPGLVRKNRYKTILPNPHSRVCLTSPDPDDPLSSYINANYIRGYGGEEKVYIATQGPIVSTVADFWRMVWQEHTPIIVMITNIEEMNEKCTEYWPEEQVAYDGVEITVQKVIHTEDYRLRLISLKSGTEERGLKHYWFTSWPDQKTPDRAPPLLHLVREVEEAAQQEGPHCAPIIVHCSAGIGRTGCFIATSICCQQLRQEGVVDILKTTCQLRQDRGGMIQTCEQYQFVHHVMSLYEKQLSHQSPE
Dual specificity protein phosphatase 3, sequence (P51452 whole entry, the tested form may be a part): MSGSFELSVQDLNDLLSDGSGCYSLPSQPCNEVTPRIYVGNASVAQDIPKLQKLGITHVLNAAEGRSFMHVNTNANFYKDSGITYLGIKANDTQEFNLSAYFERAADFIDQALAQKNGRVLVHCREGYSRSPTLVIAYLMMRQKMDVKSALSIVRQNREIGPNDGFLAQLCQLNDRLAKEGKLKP
Paired box protein Pax-8, sequence (Q06710 whole entry): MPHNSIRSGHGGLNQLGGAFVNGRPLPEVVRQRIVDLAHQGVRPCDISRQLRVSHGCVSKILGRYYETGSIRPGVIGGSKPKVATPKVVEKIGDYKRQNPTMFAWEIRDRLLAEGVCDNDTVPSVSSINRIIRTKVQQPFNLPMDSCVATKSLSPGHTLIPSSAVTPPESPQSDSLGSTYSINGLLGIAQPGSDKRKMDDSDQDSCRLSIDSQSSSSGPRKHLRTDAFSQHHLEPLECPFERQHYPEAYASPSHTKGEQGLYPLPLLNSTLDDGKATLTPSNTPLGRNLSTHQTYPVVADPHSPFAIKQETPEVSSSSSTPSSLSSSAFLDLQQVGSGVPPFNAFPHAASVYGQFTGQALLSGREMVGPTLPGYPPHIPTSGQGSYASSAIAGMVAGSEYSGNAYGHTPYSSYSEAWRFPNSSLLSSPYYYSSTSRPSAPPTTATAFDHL
Disintegrin and metalloproteinase domain-containing protein 17, sequence (P78536 whole entry, the tested form may be a part): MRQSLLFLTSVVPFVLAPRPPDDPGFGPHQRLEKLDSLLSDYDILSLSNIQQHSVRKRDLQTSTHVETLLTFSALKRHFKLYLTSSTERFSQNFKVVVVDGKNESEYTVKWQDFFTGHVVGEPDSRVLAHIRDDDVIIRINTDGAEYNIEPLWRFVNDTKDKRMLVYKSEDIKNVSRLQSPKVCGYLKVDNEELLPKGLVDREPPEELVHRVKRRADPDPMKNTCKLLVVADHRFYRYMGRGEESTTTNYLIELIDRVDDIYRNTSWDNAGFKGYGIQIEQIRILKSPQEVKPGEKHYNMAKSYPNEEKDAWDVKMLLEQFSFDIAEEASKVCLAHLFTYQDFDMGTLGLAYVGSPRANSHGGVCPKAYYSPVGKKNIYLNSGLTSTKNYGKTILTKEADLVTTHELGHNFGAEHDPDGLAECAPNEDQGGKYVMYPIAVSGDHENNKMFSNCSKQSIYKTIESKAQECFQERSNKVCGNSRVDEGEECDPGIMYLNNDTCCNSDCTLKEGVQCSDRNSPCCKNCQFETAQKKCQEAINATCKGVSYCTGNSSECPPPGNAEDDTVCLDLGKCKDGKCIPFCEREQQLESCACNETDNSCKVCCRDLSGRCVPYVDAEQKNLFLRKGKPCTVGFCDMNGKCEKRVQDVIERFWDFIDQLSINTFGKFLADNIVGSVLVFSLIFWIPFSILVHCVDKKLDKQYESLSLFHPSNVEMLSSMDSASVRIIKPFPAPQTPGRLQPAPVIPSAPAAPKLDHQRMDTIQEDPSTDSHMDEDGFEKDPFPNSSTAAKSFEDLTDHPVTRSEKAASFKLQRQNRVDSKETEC
Beta-lactamase (Salmonella choleraesuis (strain SC-B67), UniProt Q5J463), sequence (Q5J463 whole entry): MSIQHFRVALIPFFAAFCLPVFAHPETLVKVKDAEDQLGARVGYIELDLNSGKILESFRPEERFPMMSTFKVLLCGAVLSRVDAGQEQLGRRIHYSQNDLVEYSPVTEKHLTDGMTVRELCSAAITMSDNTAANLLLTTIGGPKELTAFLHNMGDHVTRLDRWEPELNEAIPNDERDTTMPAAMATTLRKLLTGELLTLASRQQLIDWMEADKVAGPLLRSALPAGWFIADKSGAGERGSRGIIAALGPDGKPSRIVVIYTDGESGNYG

## COc1ccccc1CN1C[C@@H]2N[C@H](C1)[C@@H]2c1ccc(-c2ccccc2OC)cc1
[1]
  AC50: 4.29 µM (active)
[2]
  AC50: 11.6 µM (active)

## COc1ccc(-n2nnnc2C(CCc2ccccc2)N2CCC(n3c(O)nc4ccccc43)CC2)cc1 (stereo not given)
Paired box protein Pax-8
  AC50: 7.54 µM (active)
[3]
  AC50: 21.4 µM (active)
[4]
  AC50: 14.7 µM (active)
[5]
  AC50: > 52 µM (inactive)
[6]
  AC50: 11.3 µM (active)
[7]
  AC50: 24.5 µM (active)
[8]
  AC50: 9.43 µM (active)
[9]
  AC50: 10.1 µM (active)

## Cc1ccc(NC(=O)c2oc3ccc(S(=O)(=O)N4CCOCC4)cc3c2C)cc1C
fMet-Leu-Phe receptor
  Ki: > 66.7 µM (inactive)

## O=C(NCCc1nc2ccccc2[nH]1)c1ccc(Cl)c([N+](=O)[O-])c1
[10]
  EC50: > 260 µM (inactive)
[11]
  IC50: 0.221 µM (active)
[12]
  IC50: 44.4 µM (inactive)
[13]
  IC50: 0.17 µM (active)
[14]
  IC50: > 83.3 µM (inactive)

## Cc1cc(=O)oc2c3c(cc(OCC(=O)N[C@@H](Cc4ccccc4)C(=O)O)c12)OC(C)(C)CC3
Beta-lactamase [15]
  IC50: > 59.6 µM (inactive)
Beta-lactamase [16]
  IC50: > 59.6 µM (inactive)
Beta-lactamase [17]
  IC50: > 59.6 µM (inactive)
Kallikrein-7
  EC50: 49 µM (inactive)

## O=C(c1ccc2c(c1)OCO2)N1CC(=O)N2[C@H](CO)[C@H](c3ccc(C#Cc4ccccc4)cc3)[C@H]2C1
[18]
  AC50: 5.73 µM (active)
[19]
  AC50: 25 µM (active)
[1]
  AC50: 2.52 µM (active)
[20]
  AC50: 1.68 µM (active)
[2]
  AC50: 26.3 µM (active)
[21]
  AC50: 1.93 µM (active)

## O=C(O)CCN1c2cccc3cccc(c23)S1(=O)=O
Kallikrein-7
  EC50: > 7.72 µM (active)

## CN1CCC(Nc2ncc3ncnc(Nc4ccc(F)c(Cl)c4)c3n2)CC1
[22]
  IC50: > 10 µM (inactive)
[23]
  IC50: 2.35 µM (active)
[24]
  IC50: 3.17 µM (active)
[25]
  IC50: > 20 µM (inactive)
[26]
  IC50: 12 µM (inactive)
[27]
  IC50: 11.7 µM (inactive)
[28]
  IC50: > 10 µM (inactive)
[29]
  IC50: 4 µM (active)
[30]
  IC50: 2.29 µM (active)
[31]
  IC50: 3.38 µM (active)

## CCN(c1ccccc1)S(=O)(=O)c1cc(C(=O)OC(C)C(=O)Nc2ccc3c(c2)OCCO3)ccc1C (stereo not given)
[32]
  IC50: 4.38 µM (active)
[33]
  IC50: 2.47 µM (active)
[34]
  IC50: > 80 µM (inactive)
[35]
  IC50: 5.05 µM (active)
[36]
  IC50: > 69.5 µM (inactive)
[37]
  IC50: > 7.72 µM (active)

## Cn1c(CCNC(=O)C2CCCCC2)nc2cc(NC(=O)c3cccs3)ccc21
[38]
  IC50: > 109 µM (inactive)
[39]
  IC50: > 83.3 µM (inactive)
